The conditions of series [1]: C. majus material; cited from earlier work.
The target of series [2] is T1, electric eel acetylcholinesterase (eeAChE) (Electrophorus electricus, UniProt O42275).
T1 construct: purchased Sigma-Aldrich
The experiment in a line: Cholinesterase inhibition assay (Ellman method), eeAChE. It is filed as biochemical. The settings on record: for Ki: inhibition constant, Dixon plot, substrate 0.125, 0.25, 0.5 mM. The procedure:
(§1) Cholinesterase activities were measured by the Ellman method[58] adapted for 96-well microtiter plates, as previously described.[59] The compounds were first screened for the IC50 determination, and for those with IC50 < 200 μM, the inhibitory constants (Ki) were determined. Stock solutions of the tested compounds (5 mg/mL) and of the positive control (1 mg/mL neostigmine bromide, Sigma-Aldrich, St. Louis, MO, USA) were prepared in 100% MeOH. These solutions were added to the wells and gradually diluted in 100 mM potassium phosphate buffer (pH 7.4) to the final volume of 50 μL. Acetylthiocholine chloride and 5,5′-dithiobis-2-nitrobenzoic acid were then dissolved in the same buffer to the respective final concentrations of 1 and 0.5 mM and added (100 μL) to the wells of the microtiter plates. eeAChE, hrAChE, or hsBChE (all Sigma-Aldrich) were dissolved in the same buffer to 0.0075 U/mL. A 50 μL amount of each of the cholinesterases was added to start the reactions, which were followed spectrophotometrically at 405 nm and 25 °C for 5 min using a kinetic microplate reader (Dynex Technologies Inc., Chantilly, VA, USA). Blank reactions without the inhibitors were run in the presence of the appropriate dilution of MeOH in 100 mM potassium phosphate buffer (pH 7.4). The concentrations of the compounds inducing 50% inhibition of enzyme activity (IC50) were determined and expressed as mean values ± SEM. To determine the inhibition constants (Ki), the kinetics were monitored using three different final substrate concentrations (0.125, 0.25, 0.5 mM). Each measurement was repeated at least three times. Data were analyzed using OriginPro software (OriginPro 2020, OriginLab Corporation, Northampton, MA, USA).

Series [3] has as its target T2, human recombinant acetylcholinesterase (hrAChE) (Homo sapiens, UniProt P22303).
T2 construct: purchased Sigma-Aldrich
The experiment in a line: Cholinesterase inhibition assay (Ellman method), hrAChE. It counts as biochemical. As to conditions: for Ki: inhibition constant, Dixon plot, substrate 0.125, 0.25, 0.5 mM. The procedure: as §1

Series [4] has as its target T3, horse serum butyrylcholinesterase (hsBChE) (Equus caballus, UniProt P81908).
T3 construct: purchased Sigma-Aldrich; host or cells: horse serum
The series can be described thus: biochemical. It is filed as biochemical. The settings on record: for Ki: inhibition constant, Dixon plot, substrate 0.125, 0.25, 0.5 mM; for IC50: means ± SEM of three independent measurements; for selectivity for BChE: hsBChE versus AChEs. As for the experimental part:
as §1

The nature of series [5]: Storage stability of isolated compounds (oxidation). It is filed as physicochemical. The procedure:
These findings are of interest as they contrast with observations from the present work. In this study, no special precautions were taken in the isolation of 1 and 2, although the laboratory studies were conducted relatively quickly: only 9 days elapsed from the collection of fresh plants to the acquisition of NMR data (see Supporting Information, Figure S31 for a detailed isolation timeline). […] Comparison of the present methodology with the approaches used by Tsai and Lee[25] and Paulsen et al.[26] has led to the hypothesis that the use of a strong acid (0.1% TFA, pH ∼2.0) during HPLC may be an important component of compound stability. In the present investigation, 0.1% TFA was used in both solvents during HPLC purification, and the same was done by Tsai and Lee. Conversely, Paulsen et al. opted for a three-solvent system of 10 mM (NH4)2SO3, 0.2% triethylamine adjusted with acetic acid to pH 4.0 (solvent A), CH3CN (solvent B), and MeOH (solvent C). Their observation that 13,14-dihydrocoptisine oxidized repeatedly after HPLC leads to the present conclusion that these conditions may have been insufficiently acidic to stabilize the compound. However, this was not tested in the current work. Further, given the varied substitution of the aromatic motifs in these compounds, the role these groups play upon stability cannot be yet ascertained. […]

The nature of series [6]: Protoberberine oxidation analysis in P. setiferum capsules (oven 40 °C vs freezer -20 °C, LC-MS). It is filed as physicochemical, Papaver setiferum. The settings on record: 2 weeks. As for the experimental part:
The alkaloid analysis was based on De Vos et al. (2007).[57]P. setiferum material was collected at four time points: (1) approximately 3 days before flowering, (2) during flowering, (3) approximately 2 weeks after flowering, and (4) approximately 4 weeks after flowering (by which point the flowers had dried and turned brown). At each collection time, a sample of the aerial parts (three separate stems, each with several leaves and a capsule) was collected and stored at −20 °C. The samples were later separated into capsules, leaves, and stems and ground into a powder using a mortar and pestle. One hundred milligrams (±5 mg) of each was transferred into an Eppendorf tube, and each weight was recorded. Cold MeOH (0.1% FA) was added to each in a 1:10 w/v ratio, and the tubes were sonicated for 30 min. The samples were centrifuged for 5 min at 13 000 rpm, and the supernatant was filtered (0.2 μm). A pooled sample was prepared by taking 20 μL from each sample and combining into a single vial. All samples were diluted 1:10 in Milli-Q water prior to LC-MS analysis. The samples were randomly ordered for LC-MS, with the pooled sample run interspaced after every fourth sample. An injection volume of 2 μL was used for each sample. The solvents used were 5% CH3CN (0.1% FA) (solvent A) and 95% CH3CN (0.1% FA) (solvent B). The column used was a Phenomenex Kinetex XB-C18 (2.6 μm, 100 Å, 3.0 × 100 mm) with a linear solvent gradient from 15% to 50% solvent B over 20 min. Alkaloids were identified by comparison of retention times with authentic standards.
From three P. setiferum capsules [taken from time point (1) in the time series analysis], two lots of 100 ± 5 mg of material were weighed into Eppendorf tubes. One set of samples was stored with the lids open in the oven at 40 °C, while the others were stored in the freezer at −20 °C. After 2 weeks, the samples were analyzed by LC-MS, as described above.

The mark [7] stands for this setting: AChEs (eeAChE and hrAChE), compared to 2.
Where [8] appears, read: means ± SEM of three independent measurements, read-out: eeAChE IC50.
The mark [9] stands for this setting: means ± SEM of three independent measurements, read-out: hrAChE IC50.

Where two headings read alike, the source gives them in different places.

T3 sequence (P81908 whole entry): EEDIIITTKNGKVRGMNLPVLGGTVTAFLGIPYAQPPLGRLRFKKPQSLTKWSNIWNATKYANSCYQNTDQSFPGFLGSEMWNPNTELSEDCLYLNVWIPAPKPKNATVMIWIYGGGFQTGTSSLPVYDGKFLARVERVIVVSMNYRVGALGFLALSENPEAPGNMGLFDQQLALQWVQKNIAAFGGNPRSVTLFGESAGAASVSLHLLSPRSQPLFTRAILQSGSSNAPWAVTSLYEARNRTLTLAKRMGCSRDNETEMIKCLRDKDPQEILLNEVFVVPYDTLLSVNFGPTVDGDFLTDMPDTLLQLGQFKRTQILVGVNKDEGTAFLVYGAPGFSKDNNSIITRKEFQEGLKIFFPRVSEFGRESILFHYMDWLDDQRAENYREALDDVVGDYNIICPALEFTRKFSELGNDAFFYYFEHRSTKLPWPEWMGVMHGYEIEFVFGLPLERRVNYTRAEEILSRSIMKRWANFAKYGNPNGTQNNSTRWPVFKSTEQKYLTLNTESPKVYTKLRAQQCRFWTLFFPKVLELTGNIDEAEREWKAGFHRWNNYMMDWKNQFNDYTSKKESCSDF
T2 sequence (P22303 32-614): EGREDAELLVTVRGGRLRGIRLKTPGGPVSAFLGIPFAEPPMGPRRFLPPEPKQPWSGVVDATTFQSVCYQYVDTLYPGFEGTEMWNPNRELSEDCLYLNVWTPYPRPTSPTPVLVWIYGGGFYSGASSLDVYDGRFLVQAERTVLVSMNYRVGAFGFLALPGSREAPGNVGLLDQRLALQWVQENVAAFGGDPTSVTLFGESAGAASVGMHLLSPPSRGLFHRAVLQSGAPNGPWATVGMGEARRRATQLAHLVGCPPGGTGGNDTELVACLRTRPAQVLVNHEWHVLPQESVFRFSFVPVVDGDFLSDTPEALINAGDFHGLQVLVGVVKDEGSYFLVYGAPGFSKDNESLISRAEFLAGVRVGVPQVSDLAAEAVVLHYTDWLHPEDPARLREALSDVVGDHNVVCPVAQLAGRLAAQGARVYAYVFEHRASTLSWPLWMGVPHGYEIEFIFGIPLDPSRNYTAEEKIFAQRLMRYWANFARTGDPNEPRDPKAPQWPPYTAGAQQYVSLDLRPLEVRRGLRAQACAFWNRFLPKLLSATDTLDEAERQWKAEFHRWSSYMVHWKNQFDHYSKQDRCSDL
T1 sequence (O42275 24-633): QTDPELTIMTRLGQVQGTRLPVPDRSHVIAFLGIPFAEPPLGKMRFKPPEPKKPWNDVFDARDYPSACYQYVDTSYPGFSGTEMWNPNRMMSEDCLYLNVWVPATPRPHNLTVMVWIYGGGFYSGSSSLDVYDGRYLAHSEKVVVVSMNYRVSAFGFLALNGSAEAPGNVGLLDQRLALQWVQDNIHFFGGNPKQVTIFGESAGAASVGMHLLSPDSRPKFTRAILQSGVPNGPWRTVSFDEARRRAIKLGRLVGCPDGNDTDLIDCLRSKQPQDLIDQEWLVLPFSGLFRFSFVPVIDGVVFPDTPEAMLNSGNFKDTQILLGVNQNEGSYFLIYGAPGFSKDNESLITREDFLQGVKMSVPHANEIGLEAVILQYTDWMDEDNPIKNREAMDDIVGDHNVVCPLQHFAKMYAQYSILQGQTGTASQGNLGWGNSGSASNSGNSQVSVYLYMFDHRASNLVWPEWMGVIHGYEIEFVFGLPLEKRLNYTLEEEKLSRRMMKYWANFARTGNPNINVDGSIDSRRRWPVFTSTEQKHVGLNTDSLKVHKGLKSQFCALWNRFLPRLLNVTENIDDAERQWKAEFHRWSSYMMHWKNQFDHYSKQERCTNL

In the case of `C1=[N+]2CCc3cc4c(cc3C2Cc2ccc3c(c21)OCO3)OCO4` (stereo not shown) [13,14-dihydrocoptisine], in series [1], the “oxidation after oven-drying of plant material” value is listed as “complete oxidation”.
With `COc1cc2c(c(CO)c1OC)C[C@H]1c3c(cc4c(c3OC)OCO4)CC[N+]1=C2.O=C([O-])C(F)(F)F` [Compound 1, 7,8-Didehydromecambridine TFA salt], the “lower activity against AChEs when compared to 2” value in series [2] (setting [7]) is given as “approximately 3 fold”. In series [2] (setting [7]), the “lower inhibition constants when compared to 2” value is reported as around 6 fold. Further, the Ki (usually a measure of affinity in units of concentration, obtained from inhibition or displacement) in series [2] stood at 7 µM; in series [3], 31 µM; in series [4], 58.5 µM. Further, the results for the half-inhibitory concentration (IC50) in series [2] (setting [8]), in series [3] (setting [9]) and in series [4] were 10.3 ± 1.1 µM, 66.6 ± 2.4 µM and 100 ± 5 µM, respectively. Besides, in series [5] (TFA salt, 0.7 mg, uncapped glass vial, room temperature, approximately 8 weeks), the “oxidation of dried sample on storage” value is on record as “no oxidation to 3”. Moreover, the “change of concentration in oven-dried capsules versus capsules stored at -20 °C” value (“change of concentration” for short) in series [6] is “minor decrease in concentration”.
Turning to `COc1cc2c(c3c1OCOC3)C[C@H]1c3c(cc4c(c3OC)OCO4)CC[N+]1=C2.O=C([O-])C(F)(F)F` [Compound 2, 7,8-Didehydroorientalidine TFA salt], the values for the Ki in series [2], in series [3] and in series [4] were 1 µM, 6.3 µM and 47 µM, respectively. The IC50 (in general, the point on the concentration scale where inhibition reaches its midpoint) in series [2] (setting [8]) was found to be 3.4 ± 4.7 µM; in series [3] (setting [9]), 18.9 ± 1.8 µM; in series [4], 98.5 ± 0.6 µM. Further, in series [6], the “change of concentration” value is on record as “minor decrease in concentration”.
For `COc1cc2c[n+]3c(cc2c(CO)c1OC)-c1c(cc2c(c1OC)OCO2)CC3` [Compound 3, alborine], the values for the Ki in series [2], in series [3] and in series [4] were 3.6 µM, 13.2 µM and 43.7 µM, respectively. The IC50 was determined as 6.8 ± 4.5 µM in series [2] (setting [8]), 20 ± 0.9 µM in series [3] (setting [9]) and 63.1 ± 0.5 µM in series [4]. For the same compound, in series [6], the “change of concentration” value is reported as “approximately doubling”.
Take `COc1cc2c(c3c1OCOC3)C[C@H]1c3c(cc4c(c3OC)OCO4)CCN1C2` [Compound 4, orientalidine]: the values for the Ki in series [2], in series [3] and in series [4] were 2 µM, 13.7 µM and 35.5 µM, respectively. For the same compound, the results for the IC50 in series [2] (setting [8]), in series [3] (setting [9]) and in series [4] were 5 ± 1 µM, 19.9 ± 1.1 µM and 104 ± 4 µM, respectively. Also, the “oxidation on standing in an NMR tube” value in series [5] (1:1 mixture of 4 and 5 (fraction C.12), four months) is recorded as “complete oxidation of 4 to 5”.
For the compound `COc1cc2c[n+]3c(cc2c2c1OCOC2)-c1c(cc2c(c1OC)OCO2)CC3` [Compound 5, 7,8,13,14-dehydroorientalidine], the “change of concentration” value in series [6] is reported as “below the level of detection”.
`COc1cc2c3c(c1O)-c1c(cccc1OC)C[C@@H]3N(C)CC2` [Compound 6, isothebaine]: the Ki in series [2] worked out at 68 µM; in series [4] it was 0.6 µM. Also, the concentration for half-maximal inhibition (IC50) in series [2] (setting [8]) was 260 ± 1 µM; in series [3] it was above 342 µM; in series [4], 2.8 ± 3 µM. Moreover, the “selectivity for BChE” value in series [4] was “good selectivity for BChE”.
As for `COc1cc2c3c(c1O)-c1c(cccc1OC)C[C@@H]3[N+](C)(C)CC2` [Compound 7, N-methylisothebainium], in series [2] (setting [8]), the IC50 is above 342 µM. In addition, the IC50 in series [3] (setting [9]) was above 342 µM. Further, in series [4], the “selectivity for BChE” value is given as “good selectivity for BChE”, the affinity corresponds to a Ki of 2.2 µM and the IC50 was 7.1 ± 2.7 µM.
With `COc1cc(C[C@H]2c3cc(O)c(OC)cc3CC[N+]2(C)C)ccc1O` [Compound 8, N-methylorientaline], the IC50 was above 342 µM in series [2] (setting [8]), above 342 µM in series [3] (setting [9]) and 342 ± 3 µM in series [4].
As for `COc1cc2c(cc1O)[C@H](Cc1ccc(OC)c(OC)c1)[N+](C)(C)CC2` [Compound 9, N-methylcodamine], the IC50 in series [2] (setting [8]) was above 342 µM; in series [3] (setting [9]) it was above 342 µM; in series [4] it was 221 ± 1 µM.
For `COC1=C[C@]23CCN(C)[C@H](Cc4ccc(OC)c(O)c42)C3=CC1=O` [Compound 10, salutaridine], the IC50 in series [2] and in series [3] was above 342 µM throughout.
Regarding `O=[N+]([O-])CCc1ccc(O[C@@H]2O[C@H](CO[C@@H]3OC[C@@H](O)[C@H](O)[C@H]3O)[C@@H](O)[C@H](O)[C@H]2O)cc1` [Compound 11, thalictricoside], the IC50 in series [2] (setting [8]), in series [3] (setting [9]) and in series [4] was above 342 µM each time.

The values are drawn from publication PMC8805119, “Spatial Distribution and Stability of Cholinesterase Inhibitory Protoberberine Alkaloids from Papaver setiferum” (Journal of Natural Products, 2021).
